Experiment [1] addresses T1, Alpha-galactosidase (Aspergillus niger) (UniProt Q9Y865).
T1 sequence (whole entry): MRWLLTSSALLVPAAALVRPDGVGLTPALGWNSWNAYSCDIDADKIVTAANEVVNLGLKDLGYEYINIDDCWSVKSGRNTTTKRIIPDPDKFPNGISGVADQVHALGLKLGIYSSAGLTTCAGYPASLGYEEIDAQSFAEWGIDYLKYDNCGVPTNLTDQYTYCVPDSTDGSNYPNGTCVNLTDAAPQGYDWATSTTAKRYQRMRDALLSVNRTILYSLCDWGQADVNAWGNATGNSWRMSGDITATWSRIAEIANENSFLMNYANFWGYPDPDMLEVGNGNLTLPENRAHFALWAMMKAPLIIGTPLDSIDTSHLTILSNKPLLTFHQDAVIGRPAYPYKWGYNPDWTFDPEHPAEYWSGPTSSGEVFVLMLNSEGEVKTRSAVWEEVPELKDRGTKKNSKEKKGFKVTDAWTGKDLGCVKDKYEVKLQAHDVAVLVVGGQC
Nature of the experiment: Inhibition of Aspergillus niger alpha-galactosidase at 1.2 ug/mL by colorimetric assay.

Experiment [2] has as its system Prunus dulcis. Nature of the experiment: Inhibition of almond beta-glucosidase at 0.6 ug/mL by colorimetric assay.
Experiment [3] concerns Canavalia ensiformis. Description: Inhibition of jack bean alpha-mannosidase at 25 to 30 ng/mL by colorimetric assay.

As usually defined, the inhibition is the percentage by which the read-out fell short of the control. Read a high inhibition as a strong effect.

With `O[C@@H]1[C@@H](O)[C@H](O)[C@]2(O)CC[C@H]1N2`, the inhibition in experiment [1] and in experiment [2] was 50% each time. Consider `O[C@H]1[C@H]2[C@H](O)CCCN2C[C@H]1O`, for which the inhibition in experiment [3] was 50%.
